# Test results published in US20220202739A1, “ENDOCANNABINOID MIMETIC AND ANTI-INFLAMMATORY COMPOUND CONTAINING COMPOSITIONS, METHODS OF PREPARATION AND USES THEREOF” (priority 2019, published 2022).
# Experiments:
# TRPV1 [1] = test: Gene expression custom microarray, human skin fibroblasts (Example 1): TRPV1; type: cell-based; settings: 10 uM, 24 hr
# Excerpt: Cell cultures: A human skin fibroblast cell culture (or cultures) was obtained through the Coriell Cell Repository from the National Institute on Aging Cell Repository (Camden, N.J.), or Promocell GmbH (Heidelberg, Germany). The initial culture was selected from the following cell lines: AG13066, AG11557, AG11796 or GM03651E. The cell lines were derived from donors as follows:
# Experimental phase: When the appropriate quantity of cells had been grown, they were detached as described above, but at the final step were seeded into each well of one or more 6 well dishes. Each well received 2 ml of the cell suspension so they were seeded equally. The dishes were returned to the incubator until 85-95% confluency was reached.
# It is at this stage that all wells were rinsed in PBS after aspirating the growth media. The compound(s) to be tested were previously mixed into a suitable solvent (e.g., DMSO or ethanol) that can be diluted to the desired concentration of test compound (10 μl) in the culture wells without exceeding maximum solvent concentrations and adversely effecting cell viability, and mixed with basal media. NOTE: Standard maximum levels of solvent are 0.1% for DMSO and 0.5% for ETOH. The concentration of each test compound is found in Tables 1 & 2.
# Every 2 wells on the 6 well plate served as a biological replicate for the purposes of RNA isolation and genetic expression evaluations making each 6 well dish an n=3 for the test compound(s) contained in the media. Negative control plates (no test compound(s) and only basal media) were also generated. The plates were returned to the incubator for 24 hrs.
# At the end of the 24 hr time period, the plates were removed from the incubator, the test media aspirated, and the cells rinsed with PBS. RNA isolation is performed using the BioRad Aurum Total RNA Mini Kit (Hercules, Calif.) per manufacturer's protocol; which is described, in brief, below: • Add 350 μl of lysis buffer to each well. Pipet multiple times to ensure thorough lysis. Add lysed cells to the collection tube. • Add 350 μl of 70% ETOH to the collection tube and mix thoroughly. • Pipet the generated lysate onto the spin column placed in a new 2 ml tube. Centrifuge for 30 sec between 8,000 and 10,000 g. • Place the spin column containing the now bound RNA, in a new 2 ml tube. Add 700 μl of low stringency wash solution to the spin column. Centrifuge for 30 sec between 8,000 and 10,000 g. […] Allow 1 minute for saturation of the membrane and then centrifuge for 2 minutes to complete the RNA elution. • Quantify the quantity of RNA and store at −20 C° until use (no more than 1 month) […]
# TRPA1 = test: Gene expression custom microarray, human skin keratinocytes (Example 2): TRPA1; type: cell-based; settings: 10 uM, 24 hr
# Protocol: (§1) Cell cultures: A human skin keratinocyte cell culture (or cultures) is obtained through the ThermoFisher Scientific (Waltham, Mass.) or Promocell GmbH (Heidelberg, Germany). The initial culture was selected from one of the following, C055C, 3C0647, or
# (§2) C12003. The cell lines were derived from donors as follows: C055C: Single donor adult 3C0647: Single donor adult, lightly pigmented C12003: Single donor adult
# (§3) Culture media: Cells were grown in ready to use Keratinocyte Growth Medium 2 from Promocell GmbH (Heidelberg, Germany) containing basal media supplemented with Bovine Pituitary Extract 0.004 ml/ml, Epidermal Growth Factor (recombinant human) 0.125 ng/ml, Insulin (recombinant human) 5 μg/ml, Hydrocortisone 0.33 μg/ml, Epinephrine 0.39 μg/ml, Transferrin (recombinant human) 10 μg/ml, and CaCl2 0.06 mM. […] All cultures were incubated at 37° C. with 5% CO2 in a humidified chamber.
# (§4) Experimental phase: The experimental phase was carried out in accordance with the protocol set forth in the experimental phase section of Example 1.
# (§5) The genes tested: Tested genes were the same as tested in Example 1.
# (§6) Performance of custom microarray: Performance of custom microarray was carried out in accordance with the protocol set forth in the performance of custom microarray section of Example 1. […]
# FAAH = test: Gene expression custom microarray, human skin keratinocytes (Example 2): FAAH; type: cell-based; settings: 10 uM, 24 hr
# Protocol: as §1, §2, §3, §4, §5, §6
# CNR1 = settings: human skin keratinocytes, 10 uM, 24 hr
# Protocol: as §1, §2, §3, §4, §5, §6
# CNR2 = settings: human skin keratinocytes, 10 uM, 24 hr
# Protocol: as §1, §2, §3, §4, §5, §6
# PTGS1 = test: Gene expression custom microarray, human skin keratinocytes (Example 2): PTGS1; type: cell-based; settings: 10 uM, 24 hr
# Protocol: as §1, §2, §3, §4, §5, §6
# NFKB1 = test: Gene expression custom microarray, human skin keratinocytes (Example 2): NFKB1; type: cell-based; settings: 10 uM, 24 hr
# Protocol: as §1, §2, §3, §4, §5, §6
# PPARG = test: Gene expression custom microarray, human skin keratinocytes (Example 2): PPARG; type: cell-based; settings: 10 uM, 24 hr
# Protocol: as §1, §2, §3, §4, §5, §6
# MAGL = test: Gene expression custom microarray, human skin keratinocytes (Example 2): MAGL; type: cell-based; settings: 10 uM, 24 hr
# Protocol: as §1, §2, §3, §4, §5, §6
# IL1A = test: Gene expression custom microarray, human skin keratinocytes (Example 2): IL1A; type: cell-based; settings: 10 uM, 24 hr
# Protocol: as §1, §2, §3, §4, §5, §6
# TRPM8 = test: Gene expression custom microarray, human skin keratinocytes (Example 2): TRPM8; type: cell-based; settings: 10 uM, 24 hr
# Protocol: as §1, §2, §3, §4, §5, §6
# TRPV1 [2] = test: Gene expression custom microarray, human skin keratinocytes (Example 2): TRPV1; type: cell-based; settings: 10 uM, 24 hr
# Protocol: as §1, §2, §3, §4, §5, §6
Compound,"TRPV1↑ gene expression, fold increase or decrease vs untreated cells (TRPV1 [1]) [fold]","TRPA1↑ gene expression, fold increase or decrease vs untreated cells (TRPA1) [fold]","FAAH↓ gene expression, fold increase or decrease vs untreated cells (FAAH) [fold]","CNR1↑ gene expression, fold increase or decrease vs untreated cells (CNR1) [fold]","CNR2↑ gene expression, fold increase or decrease vs untreated cells (CNR2) [fold]","PTGS1↓ gene expression, fold increase or decrease vs untreated cells (PTGS1) [fold]","NFKB1↓ gene expression, fold increase or decrease vs untreated cells (NFKB1) [fold]","PPARG↑ gene expression, fold increase or decrease vs untreated cells (PPARG) [fold]","MAGL↓ gene expression, fold increase or decrease vs untreated cells (MAGL) [fold]","IL1A↓ gene expression, fold increase or decrease vs untreated cells (IL1A) [fold]","TRPM8↑ gene expression, fold increase or decrease vs untreated cells (TRPM8) [fold]","TRPV1↑ gene expression, fold increase or decrease vs untreated cells (TRPV1 [2]) [fold]"
CCCCCCCCCCCCCCCC(=O)NCCO [N-palmitoylethanolamide],−3.2,–,–,–,–,–,–,–,–,–,–,–
"C=C(C)[C@@H]1CCC(C)=C[C@H]1c1c(O)cc(CCCCC)cc1O [CBD, cannabidiol, reference compound]",–,−1.7,−3.1,2.6,0,2.3,−1.3,−4.7,−2.3,−1.8,2.5,2.2
